Where “and” joins values, the source holds several entries; their conditions need not be identical. Equal entries are not always repeated. Toxic doses and inconclusive results are not listed. Rule as the data show it: active = T/C of 150% or more; inactive = T/C below 125%.
Tested on: L1210 leukemia ip in BDF1 mice, survival T/C
Experiment: NCI In Vivo Anticancer Drug Screen. Data for tumor model L1210 Leukemia (intraperitoneal) in B6D2F1 (BDF1) mice
Settings: endpoint: mean survival time, higher = longer survival
In short: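 Transplantable tumor model; survival measured in treated vs vehicle control mice. Value = treated/control.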

[1] = dose: 100.0 mg/kg/injection, schedule: Q01DX009 (ip), vehicle: Klucel (hydroxypropylcellulose) (HPC)
[2] = dose: 200.0 mg/kg/injection, schedule: Q01DX009 (ip), vehicle: Klucel (hydroxypropylcellulose) (HPC)
[3] = dose: 100.0 mg/kg/injection, schedule: Q04DX002 (ip), vehicle: Klucel (hydroxypropylcellulose) (HPC)
[4] = dose: 200.0 mg/kg/injection, schedule: Q04DX002 (ip), vehicle: Klucel (hydroxypropylcellulose) (HPC)
[5] = dose: 400.0 mg/kg/injection, schedule: Q04DX002 (ip), vehicle: Klucel (hydroxypropylcellulose) (HPC)
[6] = dose: 100.0 mg/kg/injection, schedule: Q01DX001 (ip), vehicle: saline
[7] = dose: 200.0 mg/kg/injection, schedule: Q01DX001 (ip), vehicle: saline
[8] = dose: 400.0 mg/kg/injection, schedule: Q01DX001 (ip), vehicle: saline
[9] = dose: 12.5 mg/kg/injection, schedule: Q01DX009 (ip), vehicle: saline
[10] = dose: 25.0 mg/kg/injection, schedule: Q01DX009 (ip), vehicle: saline
[11] = dose: 100.0 mg/kg/injection, schedule: Q04DX003 (ip), vehicle: saline with Tween-80
[12] = dose: 200.0 mg/kg/injection, schedule: Q04DX003 (ip), vehicle: saline with Tween-80
[13] = dose: 400.0 mg/kg/injection, schedule: Q04DX003 (ip), vehicle: saline with Tween-80

Measured: T/C

COc1cc(/C=N\N=C\c2ccc(OC(=O)c3cc(OC)c(OC)c(OC)c3)c(OC)c2)ccc1OC(=O)c1cc(OC)c(OC)c(OC)c1
inactive: [1] 95 % of control | [2] 95 % of control | dose: 400.0 mg/kg/injection, schedule: Q01DX009 (ip), vehicle: Klucel (hydroxypropylcellulose) (HPC) 102 % of control

COc1ccc(OC)c2[nH]c(-c3ccccc3)cc12
inactive: [3] 96 % of control | [4] 105 % of control | [5] 93 % of control

N#CC1c2ccccc2-c2ccccc2N1C(=O)c1ccccc1 (centres undefined)
inactive: [3] 93 % of control | [4] 96 % of control | [5] 107 % of control

Nc1nc(N)c(N=C/C=C\c2ccc([N+](=O)[O-])cc2)c(-c2ccccc2)n1
inactive: dose: 50.0 mg/kg/injection, schedule: Q01DX001 (ip), vehicle: saline 113 % of control | [6] 107 % of control | [7] 91 % of control | [8] 103 % of control

CCCCCCCCCCCC[N+](C)(C)C.C[As](C)(=O)[O-]
inactive: dose: 6.25 mg/kg/injection, schedule: Q01DX009 (ip), vehicle: saline 101 % of control | [9] 101 % of control | [10] 97 % of control and 101 % of control

ClCCC[Si](Cl)(Cl)Cl
inactive: dose: 75.0 mg/kg/injection, schedule: Q01DX001 (ip), vehicle: saline 109 % of control | dose: 150.0 mg/kg/injection, schedule: Q01DX001 (ip), vehicle: saline 107 % of control | dose: 300.0 mg/kg/injection, schedule: Q01DX001 (ip), vehicle: saline 100 % of control

CC(C)=CCC(CCN1CCCC1)(C(N)=O)c1cccc2ccccc12 (centres undefined)
inactive: dose: 5.0 mg/kg/injection, schedule: Q01DX009 (ip), vehicle: Klucel (hydroxypropylcellulose) (HPC) 102 % of control | dose: 5.0 mg/kg/injection, schedule: Q04DX003 (ip), vehicle: Klucel (hydroxypropylcellulose) (HPC) 98 % of control | dose: 10.0 mg/kg/injection, schedule: Q01DX009 (ip), vehicle: Klucel (hydroxypropylcellulose) (HPC) 95 % of control | dose: 10.0 mg/kg/injection, schedule: Q04DX003 (ip), vehicle: Klucel (hydroxypropylcellulose) (HPC) 104 % of control | dose: 20.0 mg/kg/injection, schedule: Q01DX009 (ip), vehicle: Klucel (hydroxypropylcellulose) (HPC) 98 % of control | dose: 20.0 mg/kg/injection, schedule: Q04DX003 (ip), vehicle: Klucel (hydroxypropylcellulose) (HPC) 104 % of control

CC(C)=CCCNC(=O)NS(=O)(=O)c1ccc(Cl)cc1
inactive: dose: 50.0 mg/kg/injection, schedule: Q01DX009 (ip), vehicle: Klucel (hydroxypropylcellulose) (HPC) 101 % of control | [1] 95 % of control | dose: 100.0 mg/kg/injection, schedule: Q04DX003 (ip), vehicle: Klucel (hydroxypropylcellulose) (HPC) 104 % of control | [2] 102 % of control | dose: 200.0 mg/kg/injection, schedule: Q04DX003 (ip), vehicle: Klucel (hydroxypropylcellulose) (HPC) 110 % of control | dose: 400.0 mg/kg/injection, schedule: Q04DX003 (ip), vehicle: Klucel (hydroxypropylcellulose) (HPC) 95 % of control

COc1ccc(C(=O)C(C)CN2CCOCC2)cc1 (centres undefined)
inactive: [6] 102 % of control | [7] 105 % of control | [8] 102 % of control

CC(=O)OC1C2OC3C=C(C)CCC3(CO)C(C)(C1O)C21CO1 (centres undefined)
inactive: dose: 0.8 mg/kg/injection, schedule: Q01DX009 (ip), vehicle: other 101 % of control | dose: 1.6 mg/kg/injection, schedule: Q01DX009 (ip), vehicle: other 104 % of control | dose: 3.2 mg/kg/injection, schedule: Q01DX009 (ip), vehicle: other 101 % of control | dose: 6.4 mg/kg/injection, schedule: Q01DX009 (ip), vehicle: other 114 % of control | dose: 12.8 mg/kg/injection, schedule: Q01DX009 (ip), vehicle: other 122 % of control | dose: 25.6 mg/kg/injection, schedule: Q01DX009 (ip), vehicle: other 122 % of control

CN(c1ccccc1)S(=O)(=O)c1ccc(NC(=O)CBr)cc1
inactive: dose: 37.5 mg/kg/injection, schedule: Q01DX001 (ip), vehicle: Klucel (hydroxypropylcellulose) (HPC) 86 % of control | dose: 75.0 mg/kg/injection, schedule: Q01DX001 (ip), vehicle: Klucel (hydroxypropylcellulose) (HPC) 93 % of control

O=S(=O)(CC(Cl)c1ccc(Cl)cc1)c1ccccc1 (centres undefined)
inactive: [6] 112 % of control | [7] 114 % of control | [8] 109 % of control

COC(=O)c1cc(Br)ccc1OCC(=O)Nc1ccccc1
inactive: [11] 94 % of control | [12] 94 % of control | [13] 91 % of control

CCOC(C)(NCc1ccccc1)OCC
inactive: dose: 25.0 mg/kg/injection, schedule: Q04DX002 (ip), vehicle: Klucel (hydroxypropylcellulose) (HPC) 86 % of control | dose: 50.0 mg/kg/injection, schedule: Q04DX002 (ip), vehicle: Klucel (hydroxypropylcellulose) (HPC) 111 % of control

COC(=O)C12C=CC(C1)n1c(=O)n(-c3ccccc3)c(=O)n12 (centres undefined)
inactive: [11] 97 % of control | [12] 105 % of control | [13] 103 % of control

c1ccc(P(=NC2CCCCC2)(c2ccccc2)c2ccccc2)cc1
inactive: dose: 50.0 mg/kg/injection, schedule: Q04DX003 (ip), vehicle: acetone 96 % of control | dose: 100.0 mg/kg/injection, schedule: Q04DX003 (ip), vehicle: acetone 94 % of control

CC(=O)C(Cl)C(O)(C(F)(F)F)C(F)(F)F (centres undefined)
inactive: [9] 96 % of control | [10] 100 % of control | dose: 50.0 mg/kg/injection, schedule: Q01DX009 (ip), vehicle: saline 110 % of control | [11] 95 % of control | [12] 104 % of control

CCCCCCCCCCCSSCCCCCCCCCCC
inactive: dose: 100.0 mg/kg/injection, schedule: Q04DX003 (ip), vehicle: other 96 % of control | dose: 200.0 mg/kg/injection, schedule: Q04DX003 (ip), vehicle: other 96 % of control | dose: 400.0 mg/kg/injection, schedule: Q04DX003 (ip), vehicle: other 97 % of control

CP1(=O)CCC(=O)C1Br (centres undefined)
inactive: dose: 50.0 mg/kg/injection, schedule: Q04DX002 (ip), vehicle: saline with Tween-80 98 % of control | dose: 100.0 mg/kg/injection, schedule: Q04DX002 (ip), vehicle: saline with Tween-80 95 % of control | dose: 200.0 mg/kg/injection, schedule: Q04DX002 (ip), vehicle: saline with Tween-80 91 % of control

Nc1ncnc2c1ncn2C1OC(COC2C(CO)OC(OC(C(=O)O)C(O)C(OP(=O)(O)O)C(O)C(=O)O)C(O)C2O)C(O)C1O (centres undefined)
inactive: dose: 0.25 mg/kg/injection, schedule: Q04DX002 (ip), vehicle: saline + alcohol 91 % of control | dose: 0.5 mg/kg/injection, schedule: Q04DX002 (ip), vehicle: saline + alcohol 94 % of control | dose: 1.0 mg/kg/injection, schedule: Q04DX002 (ip), vehicle: saline + alcohol 98 % of control

CCOC1=C(NC(C)=O)C(=O)c2ccccc2C1=O
inactive: dose: 75.0 mg/kg/injection, schedule: Q01DX001 (ip), vehicle: other 100 % of control

Cc1ccc(C(=O)CCCCl)cc1C
inactive: [11] 95 % of control | [12] 89 % of control | [13] 88 % of control

CCC(C)C(=Nc1ccc(Cl)c(Cl)c1)N(C)C (centres undefined)
inactive: dose: 55.0 mg/kg/injection, schedule: Q01DX Z (ip), vehicle: methylcellulose (MC) 102 % of control | dose: 83.0 mg/kg/injection, schedule: Q01DX Z (ip), vehicle: methylcellulose (MC) 96 % of control | dose: 125.0 mg/kg/injection, schedule: Q01DX Z (ip), vehicle: methylcellulose (MC) 104 % of control

O=C(CCl)NC1C2CC3CC(C2)CC1C3 (centres undefined)
inactive: [3] 104 % of control | [4] 101 % of control | [5] 96 % of control
